Blank lines part the entries; values can stand above or below the compound they belong to.
How the values were obtained:
[1] = biological target: T1, Calcium/calmodulin-dependent protein kinase type IV (Homo sapiens) (UniProt Q16566); assay: Inhibition of human recombinant CaMK4 at 500 nM related to control ULK1
T1 sequence (whole entry): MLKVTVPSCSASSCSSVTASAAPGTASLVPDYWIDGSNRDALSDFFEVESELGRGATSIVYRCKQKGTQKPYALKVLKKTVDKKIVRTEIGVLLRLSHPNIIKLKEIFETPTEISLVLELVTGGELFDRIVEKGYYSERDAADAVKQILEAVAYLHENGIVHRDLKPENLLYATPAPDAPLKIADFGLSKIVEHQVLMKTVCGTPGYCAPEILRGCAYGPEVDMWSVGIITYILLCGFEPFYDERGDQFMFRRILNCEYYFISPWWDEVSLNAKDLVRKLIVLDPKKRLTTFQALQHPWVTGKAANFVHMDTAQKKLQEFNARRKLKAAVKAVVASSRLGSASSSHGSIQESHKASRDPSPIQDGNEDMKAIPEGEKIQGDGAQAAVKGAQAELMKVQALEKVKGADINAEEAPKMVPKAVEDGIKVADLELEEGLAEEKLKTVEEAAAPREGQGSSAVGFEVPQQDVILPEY

[2] = biological target: Mitogen-activated protein kinase kinase kinase 10 (Homo sapiens) (UniProt Q02779); assay: Inhibition of human recombinant MLK2 at 500 nM related to control ULK1
Chain of Mitogen-activated protein kinase kinase kinase 10 (Homo sapiens) (Q02779 whole entry, looked up): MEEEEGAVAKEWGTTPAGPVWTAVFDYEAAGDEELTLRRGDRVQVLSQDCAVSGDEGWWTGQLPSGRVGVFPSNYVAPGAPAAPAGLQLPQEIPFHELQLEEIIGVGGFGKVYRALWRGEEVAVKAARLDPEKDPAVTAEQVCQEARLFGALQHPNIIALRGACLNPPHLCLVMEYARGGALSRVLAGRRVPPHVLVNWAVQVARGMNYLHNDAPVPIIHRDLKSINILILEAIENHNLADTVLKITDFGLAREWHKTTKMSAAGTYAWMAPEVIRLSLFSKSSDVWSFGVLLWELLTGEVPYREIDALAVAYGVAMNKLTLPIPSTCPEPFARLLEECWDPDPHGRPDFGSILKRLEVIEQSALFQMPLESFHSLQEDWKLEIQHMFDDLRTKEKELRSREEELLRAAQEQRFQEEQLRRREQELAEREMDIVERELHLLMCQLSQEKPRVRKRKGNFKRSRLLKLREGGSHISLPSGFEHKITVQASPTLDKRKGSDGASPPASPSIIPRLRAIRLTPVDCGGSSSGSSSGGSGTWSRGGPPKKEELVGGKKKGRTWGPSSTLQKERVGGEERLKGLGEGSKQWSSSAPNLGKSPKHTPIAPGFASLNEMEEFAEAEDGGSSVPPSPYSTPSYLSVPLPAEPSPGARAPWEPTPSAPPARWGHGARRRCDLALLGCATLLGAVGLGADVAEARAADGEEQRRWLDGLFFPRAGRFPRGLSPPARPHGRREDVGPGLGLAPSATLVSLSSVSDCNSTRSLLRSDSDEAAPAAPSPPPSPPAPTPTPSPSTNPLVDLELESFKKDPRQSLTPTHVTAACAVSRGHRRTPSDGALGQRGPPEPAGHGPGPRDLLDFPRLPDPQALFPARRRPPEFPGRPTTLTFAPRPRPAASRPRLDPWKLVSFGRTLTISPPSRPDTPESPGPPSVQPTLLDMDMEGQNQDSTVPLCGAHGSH

[3] = biological target: Tyrosine-protein kinase Fer (Homo sapiens) (UniProt P16591); assay: Inhibition of human recombinant FER at 500 nM related to control ULK1
Chain of Tyrosine-protein kinase Fer (Homo sapiens) (P16591 whole entry, looked up): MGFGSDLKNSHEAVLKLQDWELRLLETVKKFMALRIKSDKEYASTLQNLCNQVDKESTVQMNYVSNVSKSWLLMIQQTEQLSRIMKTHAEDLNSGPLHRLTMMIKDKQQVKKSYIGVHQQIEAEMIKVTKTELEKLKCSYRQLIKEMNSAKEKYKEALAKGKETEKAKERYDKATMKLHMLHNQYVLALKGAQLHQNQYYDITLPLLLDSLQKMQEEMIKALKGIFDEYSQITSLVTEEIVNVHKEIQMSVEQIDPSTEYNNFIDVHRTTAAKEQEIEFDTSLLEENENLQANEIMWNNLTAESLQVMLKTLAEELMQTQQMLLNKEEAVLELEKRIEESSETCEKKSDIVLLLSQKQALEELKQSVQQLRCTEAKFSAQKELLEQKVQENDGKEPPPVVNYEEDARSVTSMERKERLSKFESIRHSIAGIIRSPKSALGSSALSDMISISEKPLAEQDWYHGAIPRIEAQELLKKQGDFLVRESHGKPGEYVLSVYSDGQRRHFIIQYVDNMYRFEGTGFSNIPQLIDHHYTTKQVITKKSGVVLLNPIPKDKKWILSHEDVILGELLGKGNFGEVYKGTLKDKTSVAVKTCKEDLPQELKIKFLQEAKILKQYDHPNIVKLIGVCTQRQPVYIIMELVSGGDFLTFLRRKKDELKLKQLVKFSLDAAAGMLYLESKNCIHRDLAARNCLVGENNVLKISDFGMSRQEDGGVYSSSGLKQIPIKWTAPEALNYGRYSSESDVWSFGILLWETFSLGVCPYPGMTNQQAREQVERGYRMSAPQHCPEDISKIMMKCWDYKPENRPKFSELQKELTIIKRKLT

[4] = biological target: T2, Serine/threonine-protein kinase NLK (Homo sapiens) (UniProt Q9UBE8); assay: Inhibition of human recombinant NLK at 500 nM related to control ULK1
T2 sequence (whole entry): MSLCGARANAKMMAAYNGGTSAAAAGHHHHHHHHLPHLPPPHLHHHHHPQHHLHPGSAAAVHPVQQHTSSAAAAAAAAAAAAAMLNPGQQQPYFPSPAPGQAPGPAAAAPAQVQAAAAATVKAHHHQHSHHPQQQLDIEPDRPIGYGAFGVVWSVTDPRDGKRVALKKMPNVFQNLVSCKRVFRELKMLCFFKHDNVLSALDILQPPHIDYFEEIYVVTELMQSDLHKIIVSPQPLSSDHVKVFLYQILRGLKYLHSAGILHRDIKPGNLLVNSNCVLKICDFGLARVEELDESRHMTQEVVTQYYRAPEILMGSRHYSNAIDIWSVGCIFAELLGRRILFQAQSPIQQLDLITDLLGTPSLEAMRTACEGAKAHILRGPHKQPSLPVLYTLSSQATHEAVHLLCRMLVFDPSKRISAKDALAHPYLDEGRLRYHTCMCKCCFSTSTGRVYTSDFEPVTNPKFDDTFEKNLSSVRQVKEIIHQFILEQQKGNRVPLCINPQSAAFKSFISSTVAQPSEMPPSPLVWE

[5] = biological target: Serine/threonine-protein kinase PAK 1 (Homo sapiens) (UniProt Q13153); assay: Inhibition of human recombinant PAK1 at 15 nM related to control ULK1
Chain of Serine/threonine-protein kinase PAK 1 (Homo sapiens) (Q13153 whole entry, looked up): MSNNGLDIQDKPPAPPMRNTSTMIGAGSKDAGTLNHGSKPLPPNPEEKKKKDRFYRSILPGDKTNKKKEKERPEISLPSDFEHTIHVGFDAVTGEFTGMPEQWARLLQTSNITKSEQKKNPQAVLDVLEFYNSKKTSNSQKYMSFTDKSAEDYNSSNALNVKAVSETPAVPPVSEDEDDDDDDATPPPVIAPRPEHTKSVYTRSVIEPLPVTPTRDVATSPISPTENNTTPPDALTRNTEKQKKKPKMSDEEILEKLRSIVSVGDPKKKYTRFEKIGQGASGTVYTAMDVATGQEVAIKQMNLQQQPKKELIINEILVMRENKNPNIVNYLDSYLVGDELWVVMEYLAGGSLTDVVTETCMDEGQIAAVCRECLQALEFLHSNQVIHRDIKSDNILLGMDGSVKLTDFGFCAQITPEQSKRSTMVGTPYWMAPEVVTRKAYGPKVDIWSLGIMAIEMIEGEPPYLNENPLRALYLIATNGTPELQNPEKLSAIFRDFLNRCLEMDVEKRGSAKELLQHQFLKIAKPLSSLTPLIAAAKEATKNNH

[6] = biological target: eIF-2-alpha kinase GCN2 (Homo sapiens) (UniProt Q9P2K8); assay: Inhibition of human recombinant GCN2 at 15 nM related to control ULK1
Chain of eIF-2-alpha kinase GCN2 (Homo sapiens) (Q9P2K8 whole entry): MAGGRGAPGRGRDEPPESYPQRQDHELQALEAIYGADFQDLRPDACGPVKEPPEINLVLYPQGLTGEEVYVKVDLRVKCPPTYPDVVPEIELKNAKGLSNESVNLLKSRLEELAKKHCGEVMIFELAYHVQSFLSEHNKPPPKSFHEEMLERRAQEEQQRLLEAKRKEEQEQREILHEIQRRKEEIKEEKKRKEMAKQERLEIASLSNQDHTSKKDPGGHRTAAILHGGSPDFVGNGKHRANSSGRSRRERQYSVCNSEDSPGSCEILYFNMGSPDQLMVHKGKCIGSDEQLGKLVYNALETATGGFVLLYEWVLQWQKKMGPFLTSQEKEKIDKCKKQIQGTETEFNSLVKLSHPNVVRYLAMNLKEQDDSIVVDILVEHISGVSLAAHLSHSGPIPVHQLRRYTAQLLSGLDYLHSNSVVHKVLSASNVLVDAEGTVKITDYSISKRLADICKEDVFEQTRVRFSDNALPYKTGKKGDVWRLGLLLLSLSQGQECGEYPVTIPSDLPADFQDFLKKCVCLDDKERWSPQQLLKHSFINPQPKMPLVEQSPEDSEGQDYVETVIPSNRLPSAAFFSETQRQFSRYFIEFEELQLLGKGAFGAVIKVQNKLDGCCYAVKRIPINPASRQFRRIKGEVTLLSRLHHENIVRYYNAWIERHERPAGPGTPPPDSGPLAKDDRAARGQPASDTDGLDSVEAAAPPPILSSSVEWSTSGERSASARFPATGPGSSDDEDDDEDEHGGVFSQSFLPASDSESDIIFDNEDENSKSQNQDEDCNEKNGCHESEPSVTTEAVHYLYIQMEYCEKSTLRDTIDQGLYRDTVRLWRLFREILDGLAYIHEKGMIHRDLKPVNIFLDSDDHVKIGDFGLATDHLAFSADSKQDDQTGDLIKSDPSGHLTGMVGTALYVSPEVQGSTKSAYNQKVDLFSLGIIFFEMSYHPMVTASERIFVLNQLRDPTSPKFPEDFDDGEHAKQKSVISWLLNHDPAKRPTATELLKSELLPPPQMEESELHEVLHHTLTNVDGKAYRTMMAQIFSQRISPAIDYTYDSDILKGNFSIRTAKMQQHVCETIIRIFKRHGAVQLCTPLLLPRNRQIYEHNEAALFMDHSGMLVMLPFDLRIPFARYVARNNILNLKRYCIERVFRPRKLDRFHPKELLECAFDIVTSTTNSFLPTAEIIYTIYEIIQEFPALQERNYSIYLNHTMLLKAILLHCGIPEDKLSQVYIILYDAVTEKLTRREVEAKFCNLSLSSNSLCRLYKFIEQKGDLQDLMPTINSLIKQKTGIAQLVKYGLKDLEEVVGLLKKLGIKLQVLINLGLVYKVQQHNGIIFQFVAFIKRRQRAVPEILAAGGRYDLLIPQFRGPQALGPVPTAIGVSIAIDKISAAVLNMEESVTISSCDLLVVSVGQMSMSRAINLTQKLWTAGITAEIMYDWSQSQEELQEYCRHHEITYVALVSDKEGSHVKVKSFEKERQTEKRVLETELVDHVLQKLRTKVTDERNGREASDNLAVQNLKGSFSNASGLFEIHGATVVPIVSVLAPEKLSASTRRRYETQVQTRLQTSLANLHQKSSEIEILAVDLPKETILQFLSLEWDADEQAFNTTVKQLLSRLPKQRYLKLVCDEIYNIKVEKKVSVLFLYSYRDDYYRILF

[7] = biological target: T3, Serine/threonine-protein kinase ULK2 (Homo sapiens) (UniProt Q8IYT8); assay: Inhibition of human recombinant ULK2 at 15 nM in presence of ATP by radiometric assay relative to control
T3 sequence (whole entry): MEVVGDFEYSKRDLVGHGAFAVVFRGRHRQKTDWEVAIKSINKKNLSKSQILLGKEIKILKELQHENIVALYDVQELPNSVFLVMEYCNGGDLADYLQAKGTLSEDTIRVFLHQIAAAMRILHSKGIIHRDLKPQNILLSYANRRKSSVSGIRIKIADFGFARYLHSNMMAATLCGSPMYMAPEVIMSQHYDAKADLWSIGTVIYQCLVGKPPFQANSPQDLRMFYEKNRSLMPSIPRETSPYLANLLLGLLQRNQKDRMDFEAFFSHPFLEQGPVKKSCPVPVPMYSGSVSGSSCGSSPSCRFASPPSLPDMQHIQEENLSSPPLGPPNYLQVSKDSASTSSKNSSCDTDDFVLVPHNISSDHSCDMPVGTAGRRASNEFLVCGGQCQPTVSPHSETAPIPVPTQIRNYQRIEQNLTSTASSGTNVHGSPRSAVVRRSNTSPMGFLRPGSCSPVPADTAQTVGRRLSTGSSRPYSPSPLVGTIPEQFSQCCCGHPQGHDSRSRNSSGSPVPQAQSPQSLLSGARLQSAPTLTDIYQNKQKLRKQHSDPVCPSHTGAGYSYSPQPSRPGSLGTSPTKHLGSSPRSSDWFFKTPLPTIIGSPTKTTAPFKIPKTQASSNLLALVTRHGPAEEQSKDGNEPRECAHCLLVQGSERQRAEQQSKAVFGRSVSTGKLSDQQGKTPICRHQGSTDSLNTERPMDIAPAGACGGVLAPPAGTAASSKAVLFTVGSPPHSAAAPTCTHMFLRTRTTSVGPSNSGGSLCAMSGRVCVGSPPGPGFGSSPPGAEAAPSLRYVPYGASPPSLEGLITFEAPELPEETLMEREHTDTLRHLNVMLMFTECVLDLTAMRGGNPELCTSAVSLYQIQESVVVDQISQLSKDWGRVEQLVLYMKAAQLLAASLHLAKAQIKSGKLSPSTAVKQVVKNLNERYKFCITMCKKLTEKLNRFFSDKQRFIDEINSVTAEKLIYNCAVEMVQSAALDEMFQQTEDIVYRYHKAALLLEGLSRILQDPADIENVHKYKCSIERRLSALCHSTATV

[8] = biological target: Tyrosine-protein kinase Yes (Homo sapiens) (UniProt P07947); assay: Inhibition of human recombinant YES at 40 nM related to control ULK1
Chain of Tyrosine-protein kinase Yes (Homo sapiens) (P07947 2-543 limits assumed): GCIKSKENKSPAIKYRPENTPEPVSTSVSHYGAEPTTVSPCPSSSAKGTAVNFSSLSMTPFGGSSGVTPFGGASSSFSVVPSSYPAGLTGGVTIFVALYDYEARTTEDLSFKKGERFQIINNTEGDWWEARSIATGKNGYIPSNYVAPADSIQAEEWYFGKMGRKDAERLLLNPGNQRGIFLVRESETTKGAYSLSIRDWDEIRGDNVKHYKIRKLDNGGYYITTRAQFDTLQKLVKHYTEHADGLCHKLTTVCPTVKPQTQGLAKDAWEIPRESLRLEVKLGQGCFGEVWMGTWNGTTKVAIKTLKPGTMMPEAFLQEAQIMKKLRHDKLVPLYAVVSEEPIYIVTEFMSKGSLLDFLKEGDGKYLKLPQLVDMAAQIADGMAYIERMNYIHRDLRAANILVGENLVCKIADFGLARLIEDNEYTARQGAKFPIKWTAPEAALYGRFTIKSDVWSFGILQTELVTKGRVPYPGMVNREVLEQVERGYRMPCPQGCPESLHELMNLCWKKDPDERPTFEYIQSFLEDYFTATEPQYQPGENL

fold change (FC) [1]: 0 | fold change (FC) [2]: 0.95 | fold change (FC) [3]: 0 | fold change (FC) [4]: 0.05
Compound: CNC(=O)c1ccccc1Oc1nc(Nc2cc(OC)c(OC)c(OC)c2)ncc1Br

fold change (FC) [5]: 0 | fold change (FC) [6]: 0.09 | inhibition [7]: 73%
Compound: CC(C)[C@H](NC(=O)c1cc(-c2cnn3cc(-c4ccc(OCCN5CCCCC5)cc4)cnc23)cs1)C(F)(F)F

fold change (FC) [8]: 0.32
Compound: O=C(N[C@@H](C1CC1)C(F)(F)F)c1cc(-c2cnn3cc(-c4ccc(F)cc4)cnc23)cs1

From ChEMBL document CHEMBL5653631, “A Potent and Selective ULK1 Inhibitor Suppresses Autophagy and Sensitizes Cancer Cells to Nutrient Stress” (iScience, 2018)
